What all share (assay type): binding, human
In experiment [1] the target is MYCN G4 DNA. Kind of experiment: Surface plasmon resonance (SPR) with immobilized biotinylated MYCN G4 DNA. The note with it: for positive binding in SPR (SNR>3): single concentration 100 μM compound. As for the experimental part: Surface plasmon resonance (SPR) analysis. The SPR binding assays were performed with a BIAcore 3000 (GE Healthcare) instrument. A CM5 SPR biochip was loaded into the system and primed with running buffer (10 mM Tris, pH7.0, 100 mM KCl, 0.005% Tween 20, 5% DMSO) with a flow rate of 5 μL/min. Then both Flow Cell (Fc) 1 and 2 were activated by EDC/NHS (0.4 M/0.1 M) aqueous solution for 15 min, followed with an injection of streptavidin (SA) solution (0.2 mg/mL in 10 mM sodium acetate buffer, pH4.5) for 30 minutes. After the immobilization amount of SA reached 8,000-10,000 RU, the surface was deactivated by flowing 1 M Ethanolamine aqueous solution (pH 8.5) for 10 min and regenerated with 10 mM NaOH for 2 min to remove the unbound SA. In the meantime, biotinylated MYCN G4 DNA was prepared at 5 μM in the annealing buffer and heated up to 95° C. for 5 min and slowly cooled down. After annealing, a total of 150 μL solution was injected in the Fc 2 of SPR system for 30 min to immobilize DNA onto the chip surface. The small molecule solutions were tested once the baseline was stable.
To detect the binding signal as well as the binding affinity, a higher flowing rate (25 μL/min) was used in both Fc 1 (reference) and Fc 2 (DNA). Each of the compound solution was prepared at 20× designed the concentrations in DMSO, and then diluted into non-DMSO running buffer, resulting in a final concentration of 5% DMSO. Then, a total of 50 μL compound solution was injected in Fc 1-2 flow path for 120 s for association, followed with 200 s running of buffer for dissociation. An injection of 50 μL regeneration buffer (1 M KCl) could be performed between two samples if necessary. The final binding curve was obtained by reference subtraction. To determine the binding affinity (KD), a series of diluted compound solutions were injected and KD was calculated by BIAevaluation 4.0 software (GE Healthcare) using Langmuir 1:1 binding model.
In this example, SPR binding assays were performed to analyze binding activity of representative bivalent compounds of the present disclosure. The compounds of this example included a non-canonical binder component and a G4 stacker component. A BIAcore 3000 (GE Healthcare) instrument was used. A CM5 SPR biochip was used and primed with running buffer (10 mM Tris, pH7.0, 100 mM KCl, 0.005% Tween 20, 5% DMSO). To immobilize the compounds onto the chip surface, the flow rate was set as 5 μL/min. Then the carboxylated dextran on the chip surface was activated by EDC/NHS (0.4 M/0.1 M) aqueous solution for 15 min, followed with an injection of streptavidin (SA) solution (0.2 mg/mL in 10 mM sodium acetate buffer, pH 4.5) for 30 minutes. After the immobilization amount of SA, the surface was quenched by injecting 1 M ethanolamine (EA) aqueous solution (pH 8.5) for 10 min and regenerated with 10 mM NaOH for 2 min to remove the physical adsorption. Furthermore, biotinylated MYCN G4 DNA was prepared at 5 μM in the annealing buffer and heated up to 95° C. for 5 min followed with slowly cooling down to room temperature within 1 h. After annealing, a total of 150 μL solution was injected in the Fc 2 of SPR system for 30 min to immobilize DNA onto the chip surface. The compound solutions were then tested once the baseline was stable.
To detect the binding signal as well as the binding affinity, a higher flowing rate (25 μL/min) was used in both Fc 1 (blank) and Fc 2 (target). Each of the compound solutions was prepared at 20× designed the concentrations in DMSO, and then diluted into non-DMSO running buffer, resulting in a final concentration of 5% DMSO. Then, a total of 50 μL compound solution was injected in Fc 1-2 flow path for 120 s for association, followed with 200 s running of buffer for dissociation. An injection of 50 μL regeneration buffer (1 M KCl) could be performed between two samples if necessary. The final binding curve was obtained by referencing the blank channel (Fc 1). […]

The next experiment concerns the target MYCN hairpin-G4 DNA. Kind of experiment: FIA using compound fluorescence (Ex 340/Em 500 nm), titration with unlabeled MYCN G4 DNA. The settings on record: for Kd: 100 nM compound titrated with folded unlabeled MYCN G4. As for the experimental part: In this study, FIA was used for validating the bindings between certain bivalent and MYCN G4 oligos. To measure the binding affinity, a solution of each compound was prepared in triplicate in a 96 well-plate (Costar, black side clear bottom), resulting in a final concentration of 100 nM (5% final DMSO in the working solution). Unlabeled MYCN G4 DNA was folded based on the above-mentioned annealing method, then added into the well plate resulting in different concentrations by a seral dilution. The plate was incubated at room temperature for 30 min, followed by centrifuging at 500 rpm for 2 minutes. The fluorescence intensity was then quantitatively recorded by a Synergy Mx microplate reader (BioTek) at Ex 340 nm/Em 500 nm. The fluorescence intensities were then normalized, and the binding affinity was calculated by fitting the curve using one-site total model in GraphPad Prism 8.3.1 software.

Experiment [2] concerns MYCN G4 DNA. Kind of experiment: Fluorescence intensity assay (FIA) with 5′Cy5-labeled MYCN G4 DNA. The settings on record: single concentration 100 μM compound, 5′Cy5-MYCN G4. How it is done: Fluorescence intensity assay. In this disclosure, fluorescence intensity assay (FIA) was used for both validation of hit binding at a single dose and binding affinity determination. For validating hit compounds from SMM screening, 100 μM solution of each compound was prepared in triplicate in a 96 well-plate (Costar, black side clear bottom), resulting in 5% DMSO concentration. 5′Cy5-labeled MYCN G4 DNA was annealed as described above, then added into the well plate resulting in a final concentration of 100 nM. The plate was incubated shaking for 30 min, followed by centrifuging at 500 rpm for 2 minutes. The fluorescence intensity was then measured on a Synergy Mx microplate reader (BioTek) at Ex 649 nm/Em 670 nm. TMPyP4/DMSO were used as positive and negative controls, respectively. In certain examples, compounds were considered binders when a change of >10% change in fluorescence intensity was observed compared to that of negative control (DMSO solution). For binding affinity measurement, small molecule solutions were prepared as serial dilutions in DMSO. Then a final test plate was prepared by adding 5 μL small molecule solutions and 10 μL annealed DNA samples into 85 μL buffer solutions, resulting in the final small molecule concentrations from 0 to 250 μM (5% final DMSO concentration). The fluorescence intensities were normalized, and the binding affinity was calculated by fitting the curve using one-site total model in GraphPad Prism 8.3.1 software. The fluorescence titration using 3′-labeled oligonucleotides was also performed the same way.

The target of experiment [3] is MYCN G4 DNA (2-AP at A11). Kind of experiment: 2-Aminopurine (2-AP) fluorescence titration, A11-labeled MYCN G4. The note with it: 2-AP at A11 of MYCN G4. How it is done: 2-Aminopurine (2-AP) fluorescence titration. Fluorescence titrations based on 2-aminopurine labeling were performed using the protocol reported previously. Briefly, MYCN G4 oligonucleotide with a 2-AP substitution at either A11 or A18 position was annealed by heating the sample to 95° C. for 5 min and cooling down to RT slowly. The oligonucleotide with folded structure was diluted to 10 μM in Tris buffer (10 mM Tris, pH7.0, 100 mM KCl, 0.005% Tween 20) and prepared in a black 96-well plate (Costar) in triplicate as designed. Small molecules were diluted in DMSO to obtain a series of solutions with concentrations ranging from 0.1 to 5 mM, and then diluted by 20 times added into the plate (5% DMSO final concentration). The final concentration of 2-AP DNA was 1 μM in the well plate. To obtain the background fluorescence, small molecule solutions without DNA were also prepared in the same plate. After incubation for 30 min at RT, the plate was briefly centrifuged and scanned in Synergy Mx microplate reader (BioTek) with Ex 310 nm/Em 365 nm. Fluorescence signals were calculated by averaging the intensities in triplicate wells after subtracting the references. Finally, the binding signals were normalized and the KD value was determined by fitting the curve using a nonlinear sigmoidal dose-response model with a variable slope in GraphPad Prism 8.3.1 software.

[4] abbreviates: MYCN hairpin G4, SPR titration, read-out: KD by SPR.
Where [5] appears, read: MYCN G4, Langmuir 1:1 model, read-out: SPR KD.

From patent US20240287054A1, “COMPOUNDS THAT BIND NON-CANONICAL G-QUADRUPLEX STRUCTURES AND METHODS OF MAKING AND USING THE SAME” (The U.S.A., as Represented by the Secretary, Department of …, priority 2021, published 2024) come the findings set out here.

Where two headings read alike, the source gives them in different places.

As to `COc1ccc(-c2noc(-c3ccc(NCCOCCNc4c5ccc(Cl)cc5nc5ccc(OC)cc45)nn3)n2)cc1` [B35, 6-chloro-2-methoxy-N-(2-(2-((6-(3-(4-methoxyphenyl)-1,2,4-oxadiazol-5-yl)pyridazin-3-yl)amino)ethoxy)ethyl)acridin-9-amine], the Kd on MYCN G4 DNA [1] (setting [4]) came to 14 ± 6 nM; on MYCN hairpin-G4 DNA, 38 ± 5 nM. Further, the “fold improvement of KD compared to B32” value in the experiment with MYCN hairpin-G4 DNA (FIA and SPR, MYCN HP-G4) is on record as > 10 fold. On to `COc1ccc(-c2noc(-c3ccc(NCCOCCOCCNc4c5ccc(Cl)cc5nc5ccc(OC)cc45)nn3)n2)cc1` [B38, 6-chloro-2-methoxy-N-(2-(2-(2-((6-(3-(4-methoxyphenyl)-1,2,4-oxadiazol-5-yl)pyridazin-3-yl)amino)ethoxy)ethoxy)ethyl)acridin-9-amine], for which the values for the Kd at MYCN G4 DNA [1] (setting [4]) and on MYCN hairpin-G4 DNA were 87 ± 39 nM and 69 ± 21 nM, respectively. Turning to `c1cc(CNCCCN2CCCCCC2)n(-c2nnc(C3CCCCCC3)s2)c1` [Compound 2], the “positive binding in FIA (>10% quenching)” value with MYCN G4 DNA [2] is listed as “hits”. Moreover, the “positive binding in SPR (SNR>3)” value in the experiment on MYCN G4 DNA [1] is given as “hits”. As for `O=C1C(=O)C(c2ccc3c(c2)CCCC3)C1NC1CCN(Cc2ccccc2)CC1` (centres unmarked) [Compound 3], the “positive binding in SPR (SNR>3)” value in the experiment with MYCN G4 DNA [1] is on record as “hits”. For `COCC(=O)c1nc2ccccc2nc1NCc1cccnc1` [Compound 5], in the experiment with MYCN G4 DNA [2], the “positive binding in FIA (>10% quenching)” value is reported as “hits”. The “positive binding in SPR (SNR>3)” value in the experiment on MYCN G4 DNA [1] is given as “hits”.

With `Cc1c(C(=O)O)sc2ncnc(NCCCN3CCN(c4ccccc4)CC3)c12` [Compound 9], in the experiment on MYCN G4 DNA [1], the “positive binding in SPR (SNR>3)” value is reported as “hits”.

As for `Cc1ccc(Nc2cc(C)nc(N3CCN(C(=O)CCc4ccccc4)CC3)n2)cc1` [Compound 10], in the experiment on MYCN G4 DNA [2], the “positive binding in FIA (>10% quenching)” value is given as “hits”. Still for that read-out and setting: under `COc1ccc2c(c1)sc1nc(-c3ccc(OC)c(OC)c3)c(NC(C)(C)C)n12` [Compound 11] stands “hits”.

For the compound `CCOc1ccc(CNC(=O)c2cnc(N3CCSCC3)nc2N)cc1` [Compound 12], the “positive binding in FIA (>10% quenching)” value in the experiment with MYCN G4 DNA [2] was “hits”.

Take `CCCNc1cc(N2CCCC(CCC(=O)N3CCN(c4ncccn4)CC3)C2)ncn1` (centres unmarked) [Compound 13]: in the experiment on MYCN G4 DNA [1], the “positive binding in SPR (SNR>3)” value is “hits”.

As to `CC(C)COCC(O)CN1CCN(c2ccc(NC(=O)c3cccs3)cn2)CC1` (centres unmarked) [Compound 14], the “positive binding in FIA (>10% quenching)” value with MYCN G4 DNA [2] is “hits”. For `COCCNc1ccc(-c2nc(-c3ccc(OC)cc3)no2)nn1` [MY-3], the figures for the Kd (on MYCN G4 DNA [1] (setting [5]); in experiment [3]) were 5900 ± 2700 nM and 1200 ± 600 nM, respectively.

In the case of `COc1ccc(-c2noc(-c3ccc(NCCCN4CCN(C)CC4)nn3)n2)cc1` [MY-5, 6-(3-(4-methoxyphenyl)-1,2,4-oxadiazol-5-yl)-N-(3-(4-methylpiperazin-1-yl)propyl)pyridazin-3-amine], the Kd on MYCN G4 DNA [1] (setting [5]) worked out at 1400 ± 200 nM; in experiment [3] it was 1000 ± 100 nM.

For `COc1ccc(-c2noc(-c3ccc(NCCN(C)C)nn3)n2)cc1` [MY-6], the Kd at MYCN G4 DNA [1] (setting [5]) turned out to be 4900 ± 2600 nM; in experiment [3] it was 1000 ± 200 nM.

As for `COc1ccc(-c2noc(-c3ccc(NCCC(N)=O)nn3)n2)cc1` [MY-7], the Kd amounted to 23500 ± 4700 nM on MYCN G4 DNA [1] (setting [5]) and 13200 ± 4600 nM in experiment [3]. For the compound `COc1ccc(-c2noc(-c3ccc(NCCCN4CCC(C)CC4)nn3)n2)cc1` [MY-10], the Kd on MYCN G4 DNA [1] (setting [5]) was 2200 ± 600 nM. In experiment [3], the “A11 2AP KD” value is on record as “sub-micromolar binders” and the Kd is 700 ± 200 nM.

As for `COc1ccc(-c2noc(-c3ccc(NCCCN(C)C)nn3)n2)cc1` [MY-11], the Kd came out at 9200 ± 1900 nM at MYCN G4 DNA [1] (setting [5]) and 1200 ± 200 nM in experiment [3]. Regarding `COc1ccc(-c2noc(-c3ccc(NCCN4CCCC4)nn3)n2)cc1` [MY-12], the Kd at MYCN G4 DNA [1] (setting [5]) is > 100000 nM. Regarding `COc1ccc(-c2noc(-c3ccc(NCCN4CCOCC4)nn3)n2)cc1` [MY-13, 6-(3-(4-methoxyphenyl)-1,2,4-oxadiazol-5-yl)-N-(2-morpholinoethyl)pyridazin-3-amine], the dissociation constant (Kd) came to 8200 ± 2400 nM at MYCN G4 DNA [1] (setting [5]) and 3200 ± 700 nM in experiment [3]. As for `COc1ccc(-c2noc(-c3ccc(NCCN4CCN(C)CC4)nn3)n2)cc1` [MY-14], the Kd at MYCN G4 DNA [1] (setting [5]) stood at 3600 ± 1000 nM. In addition, in experiment [3], the “A11 2AP KD” value is recorded as “sub-micromolar binders” and the Kd turned out to be 900 ± 200 nM.
